The values below come from patent publication US20220041647A1, “ESTRA-1,3,5(10)-TRIENE COMPOUNDS CONDENSED IN POSITION 16(17) WITH A PYRAZOLE RING AS INHIBITORS OF 17-HSD1” (FORENDO PHARMA LTD, priority 2018, published 2022).

What all share (format): biochemical
Experiment [1] addresses T1, recombinant human 17β-HSD2 (Homo sapiens, UniProt P37059).
T1 construct: made in house; host or cells: Sd9 (Sf9) insect cells, baculovirus (Bac to Bac Expression System)
T1 sequence (P37059 1-387): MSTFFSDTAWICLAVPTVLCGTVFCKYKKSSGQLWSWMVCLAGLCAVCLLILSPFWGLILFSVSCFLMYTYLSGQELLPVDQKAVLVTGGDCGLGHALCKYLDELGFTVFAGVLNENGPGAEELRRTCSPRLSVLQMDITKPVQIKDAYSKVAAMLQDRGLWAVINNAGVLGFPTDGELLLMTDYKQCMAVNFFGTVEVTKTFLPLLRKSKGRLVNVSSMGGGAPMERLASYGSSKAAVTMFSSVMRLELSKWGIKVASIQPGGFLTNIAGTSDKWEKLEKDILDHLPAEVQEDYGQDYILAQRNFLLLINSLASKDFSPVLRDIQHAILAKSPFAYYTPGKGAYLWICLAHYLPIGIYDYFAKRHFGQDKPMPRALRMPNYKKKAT
In words: Inhibition of recombinant human 17β-HSD2 (estradiol to estrone conversion, HPLC/radioactivity). To be noted: compound 1 μM; 50 nM estradiol, 1 mM NADH, 30 min RT. In outline: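 Membrane extract of Sf9 cells expressing recombinant human 17β-HSD2 (4 μg/ml), in 20 mM KH2PO4 pH 8.5 with 50 nM ^3H-spiked estradiol and 1 mM NADH, 30 min at RT, 1% DMSO. Compound at 1 μM or 0.1 μM; estrone formation by HPLC radioactivity, % inhibition relative to uninhibited conversion.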

Experiment [2] deals with T2, recombinant human 17β-HSD1 (Homo sapiens, UniProt P14061).
T2 construct: made in house; host or cells: Sd9 (Sf9) insect cells, baculovirus (Bac to Bac Expression System)
T2 sequence (P14061 1-328): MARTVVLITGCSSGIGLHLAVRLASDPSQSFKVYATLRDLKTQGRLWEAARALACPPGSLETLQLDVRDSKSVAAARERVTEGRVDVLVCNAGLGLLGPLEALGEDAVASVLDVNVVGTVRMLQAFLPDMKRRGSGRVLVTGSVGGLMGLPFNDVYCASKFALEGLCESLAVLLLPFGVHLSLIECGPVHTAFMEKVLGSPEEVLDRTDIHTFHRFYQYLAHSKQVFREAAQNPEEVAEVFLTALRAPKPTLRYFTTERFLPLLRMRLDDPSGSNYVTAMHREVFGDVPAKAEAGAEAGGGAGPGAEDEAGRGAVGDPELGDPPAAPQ
In words: Inhibition of recombinant human 17β-HSD1 (estrone to estradiol conversion, HPLC/radioactivity). The conditions noted are these: compound 100 nM; 30 nM estrone, 1 mM NADPH, 30 min RT. In outline: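 Microsomal human 17β-HSD1 from Sf9 baculovirus (1 μg/ml) was incubated 30 min at RT in 20 mM KH2PO4 pH 7.4 with 30 nM ^3H-estrone, 1 mM NADPH and inhibitor at 1 μM or 0.1 μM (1% DMSO). Estrone and estradiol were separated by HPLC with radioactivity detection. % inhibition = 100 − % conversion relative to uninhibited control.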

The test system of experiment [3] is HSD1 enzyme that is expressed in rabbit placenta tissue. In words: Inhibition of E1 to E2 conversion in rabbit placenta tissue homogenate. The conditions noted are these: compound 100 nM, 30 nM estrone, 1 mM β-NADPH, 30 min. In outline:
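Rabbit placenta homogenate (20 mM KH2PO4, 1 mM EDTA, pH 7.4) incubated 30 min with 1 mM β-NADPH, 30 nM estrone plus 5 nM [3H]-estrone tracer, and inhibitor at 1 μM or 0.1 μM (1% DMSO). Stopped with TCA; estrone and estradiol resolved by HPLC with scintillation counting; % inhibition = 100 − % conversion relative to uninhibited control.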

As a reminder, the inhibition is the relative decrease from the control value, in per cent.

Take `CN(C)C(=O)c1ccc(NC(=O)CC[C@@H]2c3c[nH]nc3[C@@]3(C)CCC4c5ccccc5CCC4C23)nc1` (stereo partly drawn) [Compound 183, N,N-dimethyl-6-(3-((8aS,12S)-8a-methyl-1,2,6b,7,8,8a,10,12,12a,12b-decahydronaphtho[2′,1′:4,5]indeno[1,2-c]pyrazol-12-yl)propanamido)nicotinamide]: in experiment [1], the inhibition at 1 µM is 10%. Also, in experiment [2], the inhibition at 0.1 µM came to 91%. In addition, the “Rabbit placenta inhibition % @100 nM” value in experiment [3] is 50%.

Regarding `Cn1ccc(NC(=O)CC[C@@H]2c3c[nH]nc3[C@@]3(C)CCC4c5ccccc5CCC4C23)n1` (stereo partly drawn) [Compound 186, 3-((8aS,12S)-8a-methyl-1,2,6b,7,8,8a,10,12,12a,12b-decahydronaphtho[2′,1′:4,5]indeno[1,2-c]pyrazol-12-yl)-N-(1-methyl-1H-pyrazol-3-yl)propanamide], the inhibition at 1 µM in experiment [1] is 1%. In addition, the inhibition at 0.1 µM in experiment [2] was 81%. For the same compound, in experiment [3], the “Rabbit placenta inhibition % @100 nM” value was 11%.

Consider `C[C@]12CCC3c4ccccc4CCC3C1[C@H](CCC(=O)NC1CCC1)c1c[nH]nc12` (stereo partly drawn) [Compound 192, N-cyclobutyl-3-((8aS,12S)-8a-methyl-1,2,6b,7,8,8a,10,12,12a,12b-decahydronaphtho[2′,1′:4,5]indeno[1,2-c]pyrazol-12-yl)propanamide], for which the inhibition at 1 µM in experiment [1] is 2%. Further, in experiment [2], the inhibition at 0.1 µM is 86%. The “Rabbit placenta inhibition % @100 nM” value in experiment [3] is reported as 14%.

Consider `Cc1ccc(NC(=O)CC[C@@H]2c3c[nH]nc3[C@@]3(C)CCC4c5ccccc5CCC4C23)nn1` (stereo partly drawn) [Compound 195, 3-((8aS,12S)-8a-methyl-1,2,6b,7,8,8a,10,12,12a,12b-decahydronaphtho[2′,1′:4,5]indeno[1,2-c]pyrazol-12-yl)-N-(6-methylpyridazin-3-yl)propanamide], for which the inhibition at 1 µM in experiment [1] stood at 10%. Also, the inhibition at 0.1 µM in experiment [2] came to 70%. Besides, the “Rabbit placenta inhibition % @100 nM” value in experiment [3] was determined as 61%.

In the case of `CN1CCN(c2ccc(NC(=O)CC[C@@H]3c4c[nH]nc4[C@@]4(C)CCC5c6ccccc6CCC5C34)nc2)CC1` (stereo partly drawn) [Compound 198, 3-((8aS,12S)-8a-methyl-1,2,6b,7,8,8a,10,12,12a,12b-decahydronaphtho[2′,1′:4,5]indeno[1,2-c]pyrazol-12-yl)-N-(5-(4-methylpiperazin-1-yl)pyridin-2-yl)propanamide], the inhibition at 1 µM in experiment [1] was 18%. Further, the inhibition at 0.1 µM in experiment [2] worked out at 88%. In addition, the “Rabbit placenta inhibition % @100 nM” value in experiment [3] came to 77%.

`C[C@]12CCC3c4cccc(F)c4CCC3C1[C@H](CCC(=O)Nc1cccc(F)n1)c1c[nH]nc12` (stereo partly drawn) [Compound 204, 3-((8aS,12S)-3-fluoro-8a-methyl-1,2,6b,7,8,8a,10,12,12a,12b-decahydronaphtho[2′,1′:4,5]indeno[1,2-c]pyrazol-12-yl)-N-(6-fluoropyridin-2-yl)propanamide]: the inhibition at 1 µM in experiment [1] amounted to 1%. The inhibition at 0.1 µM in experiment [2] stood at 96%. Further, the “Rabbit placenta inhibition % @100 nM” value in experiment [3] is on record as 63%.

Consider `CC(C)(C)c1cc(NC(=O)CC[C@@H]2c3c[nH]nc3[C@@]3(C)CCC4c5cccc(F)c5CCC4C23)no1` (stereo partly drawn) [Compound 213, N-(5-(tert-butyl)isoxazol-3-yl)-3-((8aS,12S)-3-fluoro-8a-methyl-1,2,6b,7,8,8a,10,12,12a,12b-decahydronaphtho[2′,1′:4,5]indeno[1,2-c]pyrazol-12-yl)propanamide], for which the inhibition at 1 µM in experiment [1] is 10%. Also, the inhibition at 0.1 µM in experiment [2] was found to be 93%. In addition, the “Rabbit placenta inhibition % @100 nM” value in experiment [3] stood at 25%.

As to `C[C@]12CCC3c4cccc(F)c4CCC3C1[C@H](CCC(=O)NC1CCOC1)c1c[nH]nc12` (stereo partly drawn) [Compound 225, 3-((8aS,12S)-3-fluoro-8a-methyl-1,2,6b,7,8,8a,10,12,12a,12b-decahydronaphtho[2′,1′:4,5]indeno[1,2-c]pyrazol-12-yl)-N-(tetrahydrofuran-3-yl)propanamide], in experiment [1], the inhibition at 1 µM was -2%. Also, the inhibition at 0.1 µM in experiment [2] was 88%. For the same compound, the “Rabbit placenta inhibition % @100 nM” value in experiment [3] was 10%.

For the compound `Cc1ccc(NC(=O)CC[C@@H]2c3c[nH]nc3[C@@]3(C)CCC4c5cccc(F)c5CCC4C23)nn1` (stereo partly drawn) [Compound 228, 3-((8aS,12S)-3-fluoro-8a-methyl-1,2,6b,7,8,8a,10,12,12a,12b-decahydronaphtho[2′,1′:4,5]indeno[1,2-c]pyrazol-12-yl)-N-(6-methylpyridazin-3-yl)propanamide], the inhibition at 1 µM in experiment [1] was 3%. Moreover, the inhibition at 0.1 µM in experiment [2] was 87%. Moreover, the “Rabbit placenta inhibition % @100 nM” value in experiment [3] is 67%.

For `C[C@]12CCC3c4cccc(F)c4CCC3C1[C@H](CCC(=O)Nc1cccnn1)c1c[nH]nc12` (stereo partly drawn) [Compound 237, 3-((8aS,12S)-3-fluoro-8a-methyl-1,2,6b,7,8,8a,10,12,12a,12b-decahydronaphtho[2′,1′:4,5]indeno[1,2-c]pyrazol-12-yl)-N-(pyridazin-3-yl)propanamide], in experiment [1], the inhibition at 1 µM turned out to be 1%. Further, the inhibition at 0.1 µM in experiment [2] turned out to be 84%. Also, the “Rabbit placenta inhibition % @100 nM” value in experiment [3] is 58%.

Take `C[C@]12CCC3c4cccc(F)c4CCC3C1[C@H](CCC(=O)Nc1cc(N3CCOCC3)ccn1)c1c[nH]nc12` (stereo partly drawn) [Compound 240, 3-((8aS,12S)-3-fluoro-8a-methyl-1,2,6b,7,8,8a,10,12,12a,12b-decahydronaphtho[2′,1′:4,5]indeno[1,2-c]pyrazol-12-yl)-N-(4-morpholinopyridin-2-yl)propanamide]: in experiment [1], the inhibition at 1 µM was 2%. Further, the inhibition at 0.1 µM in experiment [2] stood at 84%. In addition, the “Rabbit placenta inhibition % @100 nM” value in experiment [3] is reported as 35%.

In the case of `Cc1cc(NC(=O)CC[C@@H]2c3c[nH]nc3[C@@]3(C)CCC4c5ccccc5CCC4C23)no1` (stereo partly drawn) [Compound 246, 3-((8aS,12S)-8a-methyl-1,2,6b,7,8,8a,10,12,12a,12b-decahydronaphtho[2′,1′:4,5]indeno[1,2-c]pyrazol-12-yl)-N-(5-methylisoxazol-3-yl)propanamide], in experiment [1], the inhibition at 1 µM is 15%. In addition, the inhibition at 0.1 µM in experiment [2] is 80%. Moreover, the “Rabbit placenta inhibition % @100 nM” value in experiment [3] was 19%.

With `C[C@]12CCC3c4ccccc4CCC3C1[C@H](CCC(=O)Nc1ccc(N3CCOCC3)cn1)c1c[nH]nc12` (stereo partly drawn) [Compound 252, 3-((8aS,12S)-8a-methyl-1,2,6b,7,8,8a,10,12,12a,12b-decahydronaphtho[2′,1′:4,5]indeno[1,2-c]pyrazol-12-yl)-N-(5-morpholinopyridin-2-yl)propanamide], the inhibition at 1 µM in experiment [1] is 7%. Besides, the inhibition at 0.1 µM in experiment [2] came out at 90%. For the same compound, the “Rabbit placenta inhibition % @100 nM” value in experiment [3] is given as 46%.

For `C[C@]12CCC3c4ccccc4CCC3C1[C@H](CCC(=O)Nc1cccnn1)c1c[nH]nc12` (stereo partly drawn) [Compound 255, 3-((8aS,12S)-8a-methyl-1,2,6b,7,8,8a,10,12,12a,12b-decahydronaphtho[2′,1′:4,5]indeno[1,2-c]pyrazol-12-yl)-N-(pyridazin-3-yl)propanamide], in experiment [1], the inhibition at 1 µM came out at 0%. Moreover, the inhibition at 0.1 µM in experiment [2] is 66%. The “Rabbit placenta inhibition % @100 nM” value in experiment [3] came out at 46%.

Take `C[C@]12CCC3c4ccccc4CCC3C1[C@H](CCC(=O)Nc1cccc(F)n1)c1c[nH]nc12` (stereo partly drawn) [Compound 258, N-(6-fluoropyridin-2-yl)-3-((8aS,12S)-8a-methyl-1,2,6b,7,8,8a,10,12,12a,12b-decahydronaphtho[2′,1′:4,5]indeno[1,2-c]pyrazol-12-yl)propanamide]: in experiment [1], the inhibition at 1 µM turned out to be 2%. In experiment [2], the inhibition at 0.1 µM was 90%. Besides, in experiment [3], the “Rabbit placenta inhibition % @100 nM” value is on record as 43%.
